Assays:
gabapentin binding site = test: gabapentin binding assay (displacement of gabapentin from its binding site)
Description: Gabapentin is used in the binding assay in order to investigate the binding and affinities of the selected compounds. The affinity of the compounds according to the invention is measured via the displacement of gabapentin from its binding site.

[1] = system: phenylquinone-induced writhing in male NMRI mice; test: phenylquinone-induced writhing test in mice; format: in vivo
Description: The investigation of the analgesic efficacy was carried out according to the phenylquinone-induced writhing test in mice (as modified by I. C. Hendershot and J. Forsaith J. Pharmacol. Exp. Ther. 1959 125, 237-240). For this purpose male NMRI mice weighing 25 to 30 g were used. Groups of 10 animals per substance dose received, 10 minutes after intravenous administration of the test substances, 0.3 ml/mouse of a 0.02% aqueous solution of phenylquinone (phenyl benzoquinone, from Sigma, Deisenhofen; solution prepared by addition of 5% of ethanol and storage in a water bath at 45° C.) applied intraperitoneally. The animals were placed individually in observation cages. The number of pain-induced stretching movements (so-called writhing reactions=contortion of the body accompanied by stretching of the rear extremities) was counted using a push-button counter 5 to 20 minutes after administration of the phenylquinone. Animals that had received only physiological saline served as controls. The number of responding animals was determined for some of the examples.

Row | SMILES | % Inhibition gabapentin, 10 μmole (gabapentin binding site) | Responding Animals/Control Animals (Writhing IV) ([1]; 10 mg/kg) | further results
1 | CC(=Cc1ccccc1)C(O)(c1ccccc1)C(C)CN(C)C (centres unmarked) [Example 120, 5-dimethylamino-2,4-dimethyl-1,3-diphenyl-pent-1-en-3-ol] | 37% |  | 
2 | CC(=Cc1ccccc1)C(O)(Cc1cccc(C)c1)C(C)CN(C)C (centres unmarked) [Example 152, 5-dimethylamino-2,4-dimethyl-3-(3-methylbenzyl)-1-phenyl-pent-1-en-3-ol] | 30% |  | 
3 | CC(=Cc1ccccc1)C(O)(Cc1cccc(Cl)c1)C(C)CN(C)C (centres unmarked) [Example 156, 3-(3-chlorobenzyl)-5-dimethylamino-2,4-dimethyl-1-phenyl-pent-1-en-3-ol] | 46% |  | 
4 | COc1cccc(CC(O)(C(C)=Cc2ccc(F)cc2)C(C)CN(C)C)c1 (centres unmarked) [Example 184, 5-dimethylamino-1-(4-fluorophenyl)-3-(3-methoxybenzyl)-2,4-dimethyl-pent-1-en-3-ol] | 47% |  | 
5 | COc1cccc(CC(O)(C(C)=Cc2ccc(Cl)cc2)C(C)CN(C)C)c1 (centres unmarked) [Example 223, 1-(4-chlorophenyl)-5-dimethylamino-3-(3-methoxybenzyl)-2,4-dimethyl-pent-1-en-3-ol] | 40% |  | 
6 | COc1cccc(C=C2CCCCC(CN(C)C)C2(O)c2ccc(Cl)cc2)c1 (centres unmarked) [Example 353, 1-(4-chlorophenyl)-2-dimethylaminomethyl-7-(3-methoxy-benzylidene)-cycloheptanol] | 44% |  | 
7 | COc1ccc(C2(O)C(=Cc3cccc(OC)c3)CCCCC2CN(C)C)cc1 (centres unmarked) [Example 369, 2-dimethylaminomethyl-7-(3-methoxybenzylidene)-1-(4-methoxyphenyl)-cycloheptanol] | 43% |  | 
8 | CN(C)CC1CCCCC(=Cc2ccccc2)C1(O)c1cccc(O)c1.Cl (centres unmarked) [Example 407, 2-benzylidene-7-dimethylaminomethyl-1-(3-hydroxyphenyl)-cycloheptanol, hydrochloride] |  |  | Responding Animals/Control Animals (Writhing IV) ([1]; 2.15 mg/kg): 6/10 (2.15 mg/kg)
9 | COc1cccc(C=C2CCCCC(CN(C)C)C2(O)c2cccc(O)c2)c1.Cl (centres unmarked) [Example 408, 2-dimethylaminomethyl-1-(3-hydroxyphenyl)-7-(3-methoxy-benzylidene)-cycloheptanol, hydrochloride] |  | 9/10 (10 mg/kg) | 
10 | COc1cccc(C2(O)C(=Cc3ccccc3)CCCCC2CN(C)C)c1.Cl (centres unmarked) [Example 409, 2-benzylidene-7-dimethylaminomethyl-1-(3-methoxyphenyl)-cycloheptanol, hydrochloride] |  | 5/10 (10 mg/kg) | 
11 | CC(=Cc1ccccc1)C(O)(c1cccc(O)c1)C(C)CCN(C)C.Cl (centres unmarked) [Example 410, 3-[1-(2-dimethylaminomethyl-1-methylethyl)-1-hydroxy-2-methyl-3-phenyl-allyl]-phenol, hydrochloride] |  | 5/10 (10 mg/kg) | 
12 | CC(=Cc1ccccc1)C(O)(Cc1ccc(Cl)cc1)C(C)CN(C)C.Cl (centres unmarked) [Example 411, 3-(4-chlorobenzyl)-5-dimethylamino-2,4-dimethyl-1-phenyl-pent-1-en-3-ol, hydrochloride] |  | 3/10 (10 mg/kg) | 
13 | COc1cccc(C(O)(C(C)=Cc2ccccc2)C(C)CN(C)C)c1.Cl (centres unmarked) [Example 412, 5-dimethylamino-3-(3-methoxyphenyl)-2,4-dimethyl-1-phenyl-pent-1-en-3-ol, hydrochloride] |  | 9/10 (10 mg/kg) | 
14 | CN(C)CC1CCCC(=Cc2ccccc2)C1(O)c1cccc(O)c1.Cl (centres unmarked) [Example 413, 3-(2-benzylidene-6-dimethylaminomethyl-1-hydroxycyclohexyl)-phenol, hydrochloride] |  | 4/10 (10 mg/kg) | 

Source: patent US6815443B2, “5-Amino-1-pentene-3-ol substituted derivatives” (Gruenenthal GmbH, priority 2000, dated 2004)
